This assay deals with Acinetobacter baumannii ATCC 17978. The experiment in a line: Antimicrobial susceptibility testing: 90% growth inhibitory concentration (IC90) determination. The conditions noted are these: 90% growth inhibitory concentration, Acinetobacter baumannii ATCC17978, Iso-Sensitest broth, OD 600 nm over 16h, read-out: ATCC17978 IC90. Format: cell-based. The essentials:
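Growth of the Acinetobacter baumannii strain was followed by optical density at 600 nm every 20 minutes for 16h at 35±2° C. Inoculum was ~5×10^(5) CFU/ml in Iso-Sensitest medium, with twofold compound dilutions (e.g. 50 to 0.097 μM final). The 90% inhibitory concentration was derived in log-phase growth.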

Where [1] appears, read: Acinetobacter baumannii, ATCC17978, 16 h.

The values that follow come from patent US20230012368A1 (Hoffmann-La Roche Inc., priority 2018, published 2023).

Structures can show the parent of a compound that is named as a salt. Where two headings read alike, the source gives them in different places.

What is called IC90 is the concentration needed for an effect of 90%.

Consider `COc1ccc(-c2cnc3c(Nc4ccc(C(=O)N(C)CCN(C)C)c(C)c4)nccn23)cc1` [Example 18, N-(2-(dimethylamino)ethyl)-4-((3-(4-methoxyphenyl)imidazo [1,2-a]pyrazin-8-yl)amino)-N,2-dimethylbenzamide], for which the IC90 under setting [1] stood at 2200 nM.

Take `CCc1cc(Nc2nccn3c(-c4ccc(OCc5cc[nH]n5)c(F)c4F)cnc23)ccc1C(=O)N[C@@H](C)CN` (racemic) [Example 485, rac-(R)-4-((3-(4-((1H-pyrazol-3-yl)methoxy)-2,3-difluorophenyl)imidazo[1,2-a]pyrazin-8-yl)amino)-N-(1-aminopropan-2-yl)-2-ethylbenzamide]: under setting [1], the 90% effect concentration (IC90) was 800 nM.

On to `CNC(=O)c1ccc(Nc2nccn3c(-c4ccc(OC)c(F)c4F)cnc23)cc1C` [Example 538, 4-((3-(2,3-difluoro-4-methoxyphenyl)imidazo[1,2-a]pyrazin-8-yl)amino)-N,2-dimethylbenzamide], for which the IC90 under setting [1] was 27 nM.

For the molecule `CCc1cc(Nc2nccn3c(-c4ccc(OC(F)F)c(F)c4F)cnc23)ccc1C(=O)NCCc1nnc(C)[nH]1` [Example 295, 4-[[3-[4-(difluoromethoxy)-2,3-difluorophenyl]imidazo[1,2-a]pyrazin-8-yl]amino]-2-ethyl-N-[2-(5-methyl-4H-1,2,4-triazol-3-yl)ethyl]benzamide], the IC90 under setting [1] worked out at 140 nM.

`Cc1cc(Nc2nccn3c(-c4ccc(OC(F)F)cc4)cnc23)ccc1C(=O)N(C)CCN(C)C` [Example 50, 4-((3-(4-(difluoromethoxy)phenyl)imidazo[1,2-a]pyrazin-8-yl)amino)-N-(2-(dimethylamino)ethyl)-N,2-dimethylbenzamide]: the IC90 under setting [1] was determined as 4300 nM.

As for `COc1ccc(-c2cnc3c(Nc4ccc(C(=O)NCC5CNCCO5)c(Cl)c4)nccn23)cc1F` (centres unmarked) [Example 233, 2-chloro-4-[[3-(3-fluoro-4-methoxyphenyl)imidazo[1,2-a]pyrazin-8-yl]amino]-N-(morpholin-2-ylmethyl)benzamide; hydrochlo-ride], the IC90 under setting [1] is 1300 nM.

With `COc1ccc(-c2cnc3c(Nc4ccc(C(=O)N(C)CCCCC(=O)N5CCNCC5)c(C)c4)nccn23)cc1F` [Example 273, 4-[[3-(3-fluoro-4-methoxyphenyl)imidazo[1,2-a]pyrazin-8-yl]amino]-N,2-dimethyl-N-(5-oxo-5-piperazin-1-ylpentyl)benzamide], under setting [1], the IC90 amounted to 180 nM.

Regarding `CN(CCCSc1nc(=O)c(=O)[nH]n1C)C(=O)c1ccc(Nc2nccn3c(-c4ccc(OCC#N)c(F)c4F)cnc23)cc1Cl` [Example 395, 2-chloro-4-((3-(4-(cyanomethoxy)-2,3-difluorophenyl)imidazo[1,2-a]pyrazin-8-yl)amino)-N-methyl-N-(3-((2-methyl-5,6-dioxo-1,2,5,6-tetrahydro-1,2,4-triazin-3-yl)thio)propyl)benzamide], the IC90 under setting [1] worked out at 740 nM.

With `CCc1cc(Nc2nccn3c(-c4ccc(OC)c(F)c4F)cnc23)ccc1C(=O)NCCNC(=O)CCN` [Example 364, N-[2-(3-aminopropanoylamino)ethyl]-4-[[3-(2,3-difluoro-4-methoxyphenyl)imidazo[1,2-a]pyrazin-8-yl]amino]-2-ethylbenzamide], the IC90 under setting [1] came out at 90 nM.

In the case of `CCc1cc(Nc2nccn3c(-c4ccc(OC)c(F)c4F)cnc23)ccc1C(=O)NCCNC(=O)[C@@H]1C[C@@H](O)CN1` [Example 370, (2S,4R)-N-[2-[[4-[[3-(2,3-difluoro-4-methoxyphenyl)imidazo[1,2-a]pyrazin-8-yl]amino]-2-ethylbenzoyl]amino]ethyl]-4-hydroxypyrrolidine-2-carboxamide], the concentration for an effect of 90% (IC90) under setting [1] was 140 nM.

Regarding `CCc1cc(Nc2nccn3c(-c4ccc(Oc5ccccn5)c(F)c4F)cnc23)ccc1C(=O)NCCCCCC(=O)N1CCN[C@H](CO)C1` [Example 478, 4-[[3-[2,3-difluoro-4-(2-pyridyloxy)phenyl]imidazo [1,2-a]pyrazin-8-yl]amino]-2-ethyl-N-[6-[(3S)-3-(hydroxymethyl)piperazin-1-yl]-6-oxo-hexyl]benzamide], the IC90 under setting [1] is 380 nM.

Take `CCc1cc(Nc2nccn3c(-c4ccc(Oc5nccc(C)n5)c(F)c4F)cnc23)ccc1C(=O)NCCNC(=O)[C@@H](N)CCNC(=N)N` [Example 445, (S)-N-(2-(2-amino-4-guanidinobutanamido)ethyl)-4-((3-(2,3-difluoro-4-((4-methylpyrimidin-2-yl)oxy)phenyl)imidazo[1,2-a]pyrazin-8-yl)amino)-2-ethylbenzamide formiate 1:2]: under setting [1], the IC90 is 380 nM.

Take `Cc1cc(Nc2nccn3c(-c4ccc(OC(F)F)cc4)cnc23)ccc1C(=O)N1CCC(C(=O)NC[C@H](O)[C@@H](O)[C@H](O)[C@H](O)CO)CC1` [Example 306, 1-[4-[[3-[4-(difluoromethoxy)phenyl]im-idazo[1,2-a]pyrazin-8-yl]amino]-2-methylbenzoyl]-N-[(2S,3R,4R,5R)-2,3,4,5,6-pentahydroxyhexyl]piperidine-4-carboxamide]: the 90% effect concentration (IC90) under setting [1] amounted to 590 nM.

On to `CCc1cc(Nc2nccn3c(-c4ccc(OC)c(F)c4F)cnc23)ccc1C(=O)NC[C@@H](C)NC(=O)[C@@H](N)CCCNC(=N)N` [Example 122, N-[(2R)-2-[[(2S)-2-amino-5-guanidino-pentanoyl]amino]propyl]-4-[[3-(2,3-difluoro-4-methoxy-phenyl)imidazo[1,2-a]pyrazin-8-yl]amino]-2-ethyl-benzamide formate], for which the IC90 under setting [1] worked out at 310 nM.

In the case of `COc1ccc(-c2cnc3c(Nc4ccc(C(=O)N(C)Cc5cccnc5)c(C)c4)nccn23)cc1F` [Example 38, 4-[[3-(3-fiuoro-4-methoxy-phenyl)imidazo[1,2-a]pyrazin-8-yl]amino]-N,2-dimethyl-N-(3-pyridylmethyl) benzamide], the 90% effect concentration (IC90) under setting [1] stood at 190 nM.

Regarding `CCc1cc(Nc2nccn3c(-c4ccc(OC)c(F)c4F)cnc23)ccc1C(=O)NCCCCCCCCN` [Example 540, N-(8-aminooctyl)-4-((3-(2,3-difluoro-4-methoxyphenyl)imidazo[1,2-a]pyrazin-8-yl)amino)-2-ethylbenzamide hydrochloride], the 90% effect concentration (IC90) came to 100 nM.

As to `CCc1cc(Nc2nccn3c(-c4ccc(OC)c(F)c4F)cnc23)ccc1C(=O)NCC(=O)NCCO` [Example 423, 4-((3-(2,3-difluoro-4-methoxyphenyl)imidazo[1,2-a]pyrazin-8-yl)amino)-2-ethyl-N-(2-((2-hydroxyethyl)amino)-2-oxoethyl)benzamide], under setting [1], the IC90 is 210 nM.

Turning to `N#CCOc1ccc(-c2cnc3c(Nc4ccc(C(=O)NCCc5ccncc5)c(Cl)c4)nccn23)c(F)c1Cl` [Example 80, 2-chloro-4-[[3-[3-chloro-4-(cyanomethoxy)-2-fluoro-phenyl]imidazo[1,2-a]pyrazin-8-yl]amino]-N-[2-(4-pyridyl)ethyl] benzamide], the IC90 under setting [1] worked out at 270 nM.

In the case of `COc1ccc(-c2cnc3c(Nc4ccc(C(=O)NCCCN)c(CCF)c4)nccn23)c(F)c1F` [Example 392, N-(3-aminopropyl)-4-[[3-(2,3-difluoro-4-methoxy-phenyl)imidazo[1,2-a]pyrazin-8-yl]amino]-2-(2-fluoroethyl)benzamide], under setting [1], the IC90 was 340 nM.

Take `CCc1cc(Nc2nccn3c(-c4ccc(Oc5ncccn5)c(F)c4F)cnc23)ccc1C(=O)NCCNC(=O)[C@H](N)CCCNC(=N)N` [Example 437, N-[2-[[(2R)-2-amino-5-guanidino-pentanoyl]amino]ethyl]-4-[[3-(2,3-difluoro-4-pyrimidin-2-yloxy-phenyl)imidazo[1,2-a]pyrazin-8-yl]amino]-2-ethyl-benzamide; formic acid]: the 90% effect concentration (IC90) stood at 410 nM.
